# Biological target: IRAK4 (Homo sapiens (Human), UniProt Q9NWZ3)
# Test: IRAK-4 AlphaScreen biochemical kinase assay
# Details: 1 nM IRAK4, 1 mM ATP, 3.5 h at RT
# Method in brief: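 AlphaScreen read-out: streptavidin beads bind the biotinylated peptide and protein A beads bind the anti-phosphothreonine antibody, so energy transfer reports phosphorylation of the peptide. The kinase is human IRAK-4.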
# Chain of IRAK4 (Q9NWZ3 whole entry, species assumed): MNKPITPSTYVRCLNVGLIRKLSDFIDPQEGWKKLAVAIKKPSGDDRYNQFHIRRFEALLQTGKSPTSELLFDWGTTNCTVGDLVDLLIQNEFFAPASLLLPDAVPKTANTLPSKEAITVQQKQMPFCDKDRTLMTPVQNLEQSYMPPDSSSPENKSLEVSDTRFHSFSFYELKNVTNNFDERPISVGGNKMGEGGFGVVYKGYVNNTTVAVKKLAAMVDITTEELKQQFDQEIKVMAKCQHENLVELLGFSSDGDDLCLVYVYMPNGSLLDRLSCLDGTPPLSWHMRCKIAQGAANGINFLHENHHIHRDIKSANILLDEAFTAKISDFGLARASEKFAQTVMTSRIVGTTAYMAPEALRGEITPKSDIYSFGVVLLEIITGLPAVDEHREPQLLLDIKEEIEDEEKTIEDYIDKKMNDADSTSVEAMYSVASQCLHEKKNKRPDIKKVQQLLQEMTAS
row,IC50 [µM],SMILES
1,1 to 10,"Cc1cccc(-n2ncc3ccc(-c4coc(CN)n4)cc32)n1 [Example 285, (4-(1-(6-methylpyridin-2-yl)-1H-indazol-6-yl)oxazol-2-yl)methanamine]"
2,< 0.1,"Cc1cccc(-n2ncc3ccc(-c4cccc([C@H](C)N)n4)cc32)n1 [Example 142, (S)-1-(6-(1-(6-methylpyridin-2-yl)-1H-indazol-6-yl)pyridin-2-yl)ethanamine]"
3,< 0.1,"N#Cc1cccc(-n2ncc3ccc(-c4cccc(N)c4)cc32)n1 [Example 22, 6-(6-(3-aminophenyl)-1H-indazol-1-yl)picolinonitrile]"
4,> 10,"COC(=O)c1cccc(-n2ncc3ccc(-c4cccc(/C(C)=N/O)n4)cc32)n1 [Example 237, (E)-methyl 6-(6-(6-(1-(hydroxyimino)ethyl)pyridin-2-yl)-1H-indazol-1-yl)picolinate]"
5,0.1 to 1,"CCC[C@H](N)c1ccnc(-c2ccc3cnn(-c4cccc(CO)n4)c3c2)c1 [Example 404, (S)-(6-(6-(4-(1-aminobutyl)pyridin-2-yl)-1H-indazol-1-yl)pyridin-2-yl)methanol]"
6,1 to 10,"CNc1cc(-c2cccc(/C(C)=N\O)n2)cc2c1cnn2-c1cccc(C)n1 [Example 227, (Z)-1-(6-(4-(methylamino)-1-(6-methylpyridin-2-yl)-1H-indazol-6-yl)pyridin-2-yl)ethanone oxime]"
7,0.1 to 1,"Cc1cncc(-n2ncc3ccc(-c4cccc(C(C)N)n4)cc32)n1 (stereo not drawn) [Example 559, 1-(6-(1-(6-methylpyrazin-2-yl)-1H-indazol-6-yl)pyridin-2-yl)ethanamine]"
8,< 0.1,"Cc1cccc(-n2ncc3c(O)cc(-c4cccc(C(C)N)n4)cc32)n1 (stereo not drawn) [Example 250, 6-(6-(1-aminoethyl)pyridin-2-yl)-1-(6-methylpyridin-2-yl)-1H-indazol-4-ol]"
9,< 0.1,"CCC[C@H](N)c1cccc(-c2cc(OCC3CC(F)(F)C3)c3cnn(-c4cccc(CO)n4)c3c2)n1 [Example 598, (S)-(6-(6-(6-(1-aminobutyl)pyridin-2-yl)-4-((3,3-difluorocyclobutyl)methoxy)-1H-indazol-1-yl)pyridin-2-yl)methanol]"
10,< 0.1,"CC(N)c1cccc(-c2ccc3cnn(-c4cccc(C(C)O)n4)c3c2)n1 (stereo not drawn) [Example 284, 1-(6-(6-(6-(1-aminoethyl)pyridin-2-yl)-1H-indazol-1-yl)pyridin-2-yl)ethanol]"
11,0.1 to 1,"CCc1cccc(-n2ncc3ccc(-c4cccc(C(C)=O)n4)cc32)n1 [Example 228, 1-(6-(1-(6-ethylpyridin-2-yl)-1H-indazol-6-yl)pyridin-2-yl)ethanone]"
12,< 0.1,"COCCOc1cc(-c2cccc([C@H](C)N)n2)cc2c1cnn2-c1cncc(CO)n1 [Example 481, (S)-(6-(6-(6-(1-aminoethyl)pyridin-2-yl)-4-(2-methoxyethoxy)-1H-indazol-1-yl)pyrazin-2-yl)methanol]"
13,< 0.1,"CC(N)c1cccc(-c2ccc3cnn(-c4cccc(C5(C#N)CC5)n4)c3c2)n1 (stereo not drawn) [Example 290, 1-(6-(6-(6-(1-aminoethyl)pyridin-2-yl)-1H-indazole-1-yl)pyridin-2-yl)cyclopropanecarbonitrile]"
14,< 0.1,"CC(N)c1cccc(-c2ccc3cnn(-c4cccc(C(F)(F)F)n4)c3c2)n1 (racemic) [Example 209, 1-(6-(1-(6-(trifluoromethyl)pyridin-2-yl)-1H-indazol-6-yl)pyridin-2-yl)ethanamine]"
15,1 to 10,"Cc1cc(C)nc(-n2ncc3ccc(-c4cccc(N)c4)cc32)c1 [Example 23, 3-(1-(4,6-dimethylpyridin-2-yl)-1H-indazol-6-yl)aniline]"
16,< 0.1,"CC#CC[C@H](N)c1cccc(-c2cc(OCC)c3cnn(-c4cccc(CO)n4)c3c2)n1 [Example 441, (S)-(6-(6-(6-(1-aminopent-3-yn-1-yl)pyridin-2-yl)-4-ethoxy-1H-indazol-1-yl)pyridin-2-yl)methanol]"
17,< 0.1,"CCC[C@H](N)c1cccc(-c2cc(-c3ncccn3)c3cnn(-c4cccc(CO)n4)c3c2)n1 [Example 384, (S)-(6-(6-(6-(1-aminobutyl)pyridin-2-yl)-4-(pyrimidin-2-yl)-1H-indazol-1-yl)pyridin-2-yl)methanol]"
18,< 0.1,"Cc1cccc(-n2ncc3ccc(-c4cc(N)cc(CN)n4)cc32)n1 [Example 231, 2-(aminomethyl)-6-(1-(6-methylpyridin-2-yl)-1H-indazol-6-yl)pyridin-4-amine]"
19,1 to 10,"Cc1cccc(-n2ncc3ccc(-c4cn(C)c(CN)n4)cc32)n1 [Example 300, (1-methyl-4-(1-(6-methylpyridin-2-yl)-1H-indazol-6-yl)-1H-imidazol-2-yl)methanamine]"
20,0.1 to 1,"COC(=O)C(N)c1cccc(-c2ccc3cnn(-c4cccc(C)n4)c3c2)n1 (stereo not drawn) [Example 272, methyl 2-amino-2-(6-(1-(6-methylpyridin-2-yl)-1H-indazol-6-yl)pyridin-2-yl)acetate]"
21,< 0.1,"Nc1cc(C(=O)O)cc(-c2ccc3cnn(-c4cccc(C(F)(F)F)n4)c3c2)c1 [Example 85, 3-amino-5-(1-(6-(trifluoromethyl)pyridin-2-yl)-1H-indazol-6-yl)benzoic Acid]"
22,< 0.1,"Cc1ccn(-c2cc(-c3cccc([C@H](C)N)n3)cc3c2cnn3-c2cccc(CO)n2)n1 [Example 353, (S)-(6-(6-(6-(1-aminoethyl)pyridin-2-yl)-4-(3-methyl-1H-pyrazol-1-yl)-1H-indazol-1-yl)pyridin-2-yl)methanol]"
23,< 0.1,"Cc1cnc(-c2cc(-c3cccc([C@H](C)N)n3)cc3c2cnn3-c2cccc(CO)n2)o1 [Example 577, (S)-(6-(6-(6-(1-aminoethyl)pyridin-2-yl)-4-(5-methyloxazol-2-yl)-1H-indazol-1-yl)pyridin-2-yl)methanol]"
24,< 0.1,"CCC[C@H](N)c1cccc(-c2cc(C3CCN(C)CC3)c3cnn(-c4cccc(CO)n4)c3c2)n1 [Example 424, (S)-(6-(6-(6-(1-aminobutyl)pyridin-2-yl)-4-(1-methylpiperidin-4-yl)-1H-indazol-1-yl)pyridin-2-yl)methanol]"

row,SMILES,IC50 [µM]
1,"NCc1cncc(-c2ccc3cnn(-c4cccc(C(F)(F)F)n4)c3c2)n1 [Example 93, (6-(1-(6-(trifluoromethyl)pyridin-2-yl)-1H-indazol-6-yl)pyrazin-2-yl)methanamine]",1 to 10
2,"Cc1cccc(-n2ncc3ccc(-c4cccc(N)c4)cc32)n1 [Example 8, 3-(1-(6-methylpyridin-2-yl)-1H-indazol-6-yl)aniline]",0.1 to 1
3,"COCCOc1cc(-c2cccc([C@@H](N)CF)n2)cc2c1cnn2-c1cccc(CO)n1 [Example 594, (R)-(6-(6-(6-(1-amino-2-fluoroethyl)pyridin-2-yl)-4-(2-methoxyethoxy)-1H-indazol-1-yl)pyridin-2-yl)methanol]",< 0.1
4,"NC(=O)c1cccc(-c2ncc3ccc(-c4cncc(N)c4)cn23)n1 [Example 77, 6-(6-(5-aminopyridin-3-yl)imidazo[1,5-a]pyridin-3-yl)picolinamide]",0.1 to 1
5,"N#CCCNC(=O)c1cccc(-n2ncc3ccc(-c4cncc(N)c4)cc32)n1 [Example 70, 6-(6-(5-aminopyridin-3-yl)-1H-indazol-1-yl)-N-(2-cyanoethyl)picolinamide]",1 to 10
6,"Cc1cccc(-n2ncc3ccc(-c4cccc5c4CN(C)C5)cc32)n1 [Example 17, 6-(2-methylisoindolin-4-yl)-1-(6-methylpyridin-2-yl)-1H-indazole]",1 to 10

# — US10246456B2, “IRAK4 inhibiting agents” (BIOGEN MA INC., priority 2014, dated 2019)
